“Also recorded” adds a separate entry of the source.

Consider three compounds from patent US6489350B1, “Methods for treating neuropathic pain using heteroarylmethanesulfonamides” (Elan Pharmaceuticals, Inc., priority 1999, dated 2002).

Data set [1] relates to formalin-induced hyperalgesia in rats. The experiment in a line: Formalin test model in rats (paw flinches). The format is in vivo, rat. Here is the method:
The formalin test model in rats was conducted based on the protocol developed and reported by Malmberg A. B. and Yaksh T. L. (1992) as an animal model of hyperalgesia.
The formalin pain test produces an “early” pain that rapidly rises and falls in intensity during the first five minutes after the injection, followed by a “late” pain, which begins about 15 minutes after the injection and persists for about an hour. It has been observed that this formalin-induced pain continues even after the nerves carrying pain signals have been blocked which implies that long-lasting pain is determined not only by sensory stimulation during the discomfort but also by brain processes that persist without continual priming.
Eight (8) animals received 100 mg/kg zonisamide via oral (gastric lavage tube) administration, and eight (8) animals received sterile water as a vehicle. On the morning of testing, a small metal band (0.5 g) was loosely placed around the right hind paw. After 1 hour, the rat was placed in a cylindrical plexiglass changer for adaptation. After one additional hour, the rat was then placed in a similar cylindrical chamber that was placed on the sensing pad of an automated formalin device that senses the movement of the metal band in the space above the area above the pad. The formalin test involved injecting 50 μl of 5% formalin into the dorsal surface of the right hindpaw. […] These flinches were counted automatically and continuously over the following one-hour interval. At one hour the animal was removed and sacrificed by carbon dioxide inhalation.
The results of the tests are presented in FIGS. 2A as summations at 5-minute intervals, and in 2B broken down into phase responses. (Phase I being the “early” pain response to the formalin injection and phase II, IIA and IIB being “late” phase parts of the facilitated response state discussed above and in the Detailed Description).

Data set [2] deals with Rats with Streptozotocin (STZ)-Induced Diabetes Mellitus and Consequent Diabetic Neuropathy. The experiment in a line: Paw withdrawal force (mechanical hyperalgesia) in rats with streptozotocin-induced diabetes. The note with it: for Paw withdrawal threshold force, Week 1 Mean: Week 1, before drug treatment (baseline); for Paw withdrawal threshold force, Week 2 Mean: Week 2, before drug treatment (baseline); for Paw withdrawal threshold force, Week 3 Mean: Week 3, before drug treatment (baseline); for Paw withdrawal threshold force, Week 4 Mean: Week 4, before drug treatment (baseline). In kind it is in vivo, Male Wistar rats. Here is the method: Male Wistar rats (250-300 g), following an overnight fast, were made diabetic with 55 mg/kg i.p. streptozotocin (Sigma, St. Louis, Mo., USA). Tail ven blood was sampled 48 h later and glucose estimated by reflectance photometry (Reflocheck, Boehringer Mannheim). All STZ-treated rats had blood glucose >15 mmol/l and were included in the study. Animals were housed in boxes of three or four and maintained with food and water ad libitum for up to 6 weeks. non-diabetic control rats were housed in identical conditions. Each week (Friday) paw—pressure latency was measured as described immediately below.
A force was applied at a constant rate with a cone-shaped piston to the upper surface of the rat hindpaw until paw withdrawal; the force triggering withdrawal is measured as the “paw withdrawal force”. An arbitrary cut-off force of 240 g was adopted to preclude traumatic damage. Rats are trained such that latency is measured weekly, on Fridays.
At the start of week 5, drug treatments as defined for each of the groups set out below were commenced, such that 5 treatments preceded paw pressure testing. The injections and pressure test were timed so that, for each rat, the pressure test was made between 30 and 35 min after injection.
Monday of week 1 the rats were injected with streptozotocin and blood glucose determinations were made Wednesday of that week, on the Friday the 1st paw pressure test was performed. In weeks 2, 3, and 4 only paw pressure tests were performed on each of the Fridays. In week 5 treatments of groups C, D and E were begun with either zonisarnide (Groups C and D) or MK-801 (Group E) and paw pressure tests were performed on all groups on Friday.
Group B was given a single dose of zonisamide at 50 mg/kg on the Friday of week 6 and paw withdrawal force measured 30 min later.
Group D was maintained without treatment for week 6 (drug “washout”) and measured again on the Friday of week 6.
Data are means with standard deviations. Zonisamide was given once daily (p.o.) between 08:30 and 09:00 for 5 days during Week 5. MK-801 was given at 0.1 mg/kg i.p. twice daily (morning and evening). All measurements were made on Fridays between 10:30 and 13:30 hr. In Week 6, the designated “diabetic untreated” group (Group B) was given a single p.o. dose of 50 mg/kg zonisamide 2-3 h before measurement. For Week 6, drug treatment was withdrawn from Group D (last dose on Friday of week 5).

Data set [3] concerns formalin-evoked behavior in diabetic rats. The following applies: 50 mg/kg i.p. 30 min pre-test; 5.0% formalin; both control and diabetic rats; cited from earlier work.
Setting [4] is: 100 mg/kg orally prior to 5% formalin injection, vs water vehicle.
[5] abbreviates: Group C diabetic, zonisamide 20 mg/kg group.
Setting [6] is: Group D diabetic, zonisamide 50 mg/kg group.
Setting [7] is: Group E diabetic, MK-801 0.1 mg/kg group.

For the compound `NS(=O)(=O)Cc1noc2ccccc12` [zonisamide, 1,2-benzisoxazole-3-methanesulfonamide], in data set [1] (setting [4]), the “Effect on Phase I flinches” value was “not significant effect”, the “Effect on Phase II flinches” value is listed as “not significant effect”, the “Effect on Phase IIA flinches” value is “statistically significant effect; also recorded: significantly reduced” and the “Effect on Phase IIB flinches” value is on record as “not significant effect”. In data set [1] (100 mg/kg orally, rats), the Behavioral deficits entry is recorded as “No behavioral deficits were noted”. The “Effect on hyperalgesia (change in paw withdrawal force)” value in data set [2] (20 mg/kg p.o. for 5 days, reduction in tolerated force still present and significant (p<0.0002)) was “attenuated this hyperalgesia”. For the same compound, in data set [2] (50 mg/kg p.o. daily for 5 days, p=0.703, paired t-test), the “Effect on hyperalgesia (change in paw withdrawal force)” value was “obliterated the change in paw withdrawal force; also recorded: increase in force necessary to evoke a hyperalgesic pain response”. Besides, in data set [2] (4-5 weeks of STZ diabetes in rats, dose related), the “Activity against mechanical hyperalgesia (conclusion)” value is listed as “active against the mechanical hyperalgesia”. For the same compound, the “Paw withdrawal threshold force, Week 6 Mean” value in data set [2] (Group B, previously untreated diabetic rats, single p.o. dose of 50 mg/kg in Week 6) stood at 213.6 g. In data set [2] (setting [5]), the “Paw withdrawal threshold force, Week 1 Mean” value worked out at 212.2 g; the “Paw withdrawal threshold force, Week 2 Mean” value is 206.4 g; the “Paw withdrawal threshold force, Week 3 Mean” value came to 199.6 g; the “Paw withdrawal threshold force, Week 4 Mean” value was found to be 190.0 g. Besides, in data set [2] (Group C diabetic, 20 mg/kg p.o. once daily for 5 days during Week 5), the “Paw withdrawal threshold force, Week 5 Mean” value was found to be 195.0 g. Besides, in data set [2] (setting [6]), the “Paw withdrawal threshold force, Week 1 Mean” value amounted to 212.72 g; the “Paw withdrawal threshold force, Week 2 Mean” value was found to be 208.9 g; the “Paw withdrawal threshold force, Week 3 Mean” value stood at 200.7 g; the “Paw withdrawal threshold force, Week 4 Mean” value was 191.5 g. In data set [2] (Group D diabetic, 50 mg/kg p.o. once daily for 5 days during Week 5), the “Paw withdrawal threshold force, Week 5 Mean” value is on record as 214.9 g. Besides, in data set [2] (Group D diabetic, Week 6, drug washout, last 50 mg/kg dose on Friday of week 5), the “Paw withdrawal threshold force, Week 6 Mean” value is listed as 186.2 g. The “Effect of withdrawal and washout of the drug on hyperalgesia” value in data set [2] (one week after treatment with 50 mg/kg for 5 days, p<0.002, 50 mg/kg) is “return of the hyperalgesia; also recorded: force required to cause a paw withdrawal reaction was reduced”. In addition, the “Effect on mechanical hyperalgesia after a single dose” value in data set [2] (previously untreated diabetic rats, single 50 mg/kg dose, p<<0.0001, 50 mg/kg) is “obliterated the mechanical hyperalgesia; also recorded: increase in force necessary to evoke a hyperalgesic pain response”.

With `C[C@]12N[C@H](Cc3ccccc31)c1ccccc12` [MK-801, dizocilpine], in data set [2] (setting [7]), the “Paw withdrawal threshold force, Week 1 Mean” value worked out at 214.9 g; the “Paw withdrawal threshold force, Week 2 Mean” value is recorded as 207.1 g; the “Paw withdrawal threshold force, Week 3 Mean” value came out at 200.0 g; the “Paw withdrawal threshold force, Week 4 Mean” value is listed as 191.4 g. Further, the “Paw withdrawal threshold force, Week 5 Mean” value in data set [2] (Group E diabetic, 0.1 mg/kg i.p. twice daily for 5 days during Week 5) amounted to 221.8 g.

As to `NCC1(CC(=O)O)CCCCC1` [Gabapentin, 1-(aminomethyl)cyclohexaneacetic acid], in data set [3], the “Flinching during phases 1 and 2 of the formalin test” value is reported as “suppressed flinching”.
